# Tested on: adult T. muris
# Assay: Ex vivo adult T. muris automated motility assay (primary/secondary screen at 100 μM and dose-response)
# Parameters: species or system Trichuris muris
# Conditions: for PRIMARY_SCREEN_MINUS_LOG_FOLD_CHANGE_MOVEMENT: primary screen; for PRIMARY_SCREEN_MINUS_LOG_FOLD_CHANGE_MOVEMENT / SECONDARY_SCREEN_MINUS_LOG_FOLD_CHANGE_MOVEMENT: adult T. muris motility; for SECONDARY_SCREEN_MINUS_LOG_FOLD_CHANGE_MOVEMENT: secondary screen
# Procedure: Severe combined immune deficiency (SCID) mice were bred in the Biological Services Facility at the University of Manchester. Both male and female SCID mice were infected with a high dose of 200 infective embryonated T. muris eggs via oral gavage. At day 35 post-infection, groups of 5 mice were killed and their […] colons removed. Guts were opened longitudinally, washed with pre-warmed Roswell Park Memorial Institute (RPMI) 1640 media supplemented with penicillin (500U/ml) and streptomycin (500μg/ml) and adult T. muris worms gently removed using fine forceps. Worms removed from SCID mice were maintained in RPMI-1640 media supplemented with penicillin (500U/ml) and streptomycin (500μg/ml) at approximately 37°C and studied on the same day. Using fine forceps, individual live worms were placed into 96 well plates containing 75μl of RPMI-1640 medium supplemented with penicillin (500U/ml) and streptomycin (500μg/ml) plus 1% final concentration of DMSO or compound dissolved in DMSO. In the primary screen the test compound concentration was 100μM. Plates were then incubated at 37°C, 5% CO2, and motility was analysed after 24 hours. Worm movement was quantified using an automated motility assay. This system gives an estimate of worm movement in each well by thresholding and quantifying pixel intensity variance over time. An earlier version of this system has been previously described. One adult T. muris worm was used per well, with one well per compound in each replicate of the primary screen. The primary screen was repeated each week for a period of four weeks giving four independent biological replicates from separate parasite batches for each compound. Dose-response curves were calculated with the four factor log-logistic model using the R package drc. The primary screen was carried out at 100μM final concentration. Assay plates were assigned unique IDs and statistical analysis was performed without knowledge of compound identities using R scripts. Once hit wells were identified, well/plate positions were mapped to compound identities using DataWarrior [28]. […] Compounds identified as having encouraging activity from the DMSO solution samples were then resynthesized for confirmatory testing.
# [1] = combined primary and secondary screen minus log fold change in movement, adult T. muris, 100 μM
SMILES,COMBINED_SCREEN_ACTIVITY [1],PRIMARY_SCREEN_MINUS_LOG_FOLD_CHANGE_MOVEMENT (100 μM),SECONDARY_SCREEN_MINUS_LOG_FOLD_CHANGE_MOVEMENT (100 μM),"COMBINED_SCREEN_ACTIVITY (adult T. muris motility screen at 100 μM, combines primary and secondary screen minus log fold change in movement (mean where both are given))"
COCc1cccc(-c2ccc3c(c2)N(Cc2ccccc2)C(=O)COC3)c1 [Compound 118],10.5493,10.5493,–,–
COc1ccc(-c2ccc3c(c2)N(Cc2ccccc2)C(=O)COC3)cc1 [Compound 100],3.027,3.027,–,–
O=C1COCc2cc(-c3cc(F)cc(F)c3)ccc2N1CCN1CCOCC1 [Compound 138],-0.5965,-0.5965,–,–
COCCN1C(=O)COCc2ccc(-c3ccc(OC)cc3)cc21 [Compound 46],-1.143,-1.143,–,–
COc1ccccc1-c1ccc2c(c1)COCC(=O)N2Cc1cc(F)cc(F)c1 [Compound 155],-0.9332,-0.9332,–,–
Cn1cc(-c2ccc3c(c2)COCC(=O)N3Cc2ccc3c(c2)OCO3)cn1 [Compound 127],0.2993,-0.5635,1.162,–
COCCN1C(=O)COCc2ccc(-c3cccc(NC(C)=O)c3)cc21 [Compound 88],-0.1104,-1.635,1.414,–
COc1cccc(CN2C(=O)COCc3cc(Br)ccc32)c1 [Compound 103],7.462,7.462,–,–
O=C1COCc2ccc(-c3cccc(CO)c3)cc2N1CC1CC1 [Compound 41],-1.108,-1.108,–,–
O=C1COCc2ccc(-c3cccc(F)c3)cc2N1CCN1CCOCC1 [Compound 116],0.5451,0.5451,–,–
CC(C)c1cccc(-c2ccc3c(c2)N(CCN2CCOCC2)C(=O)COC3)c1 [Compound 152],5.995,5.995,–,–
COCCN1C(=O)COCc2ccc(-c3cccc(C(=O)OC)c3)cc21 [Compound 93],-1.513,-1.513,–,–
Cc1ccccc1-c1ccc2c(c1)N(CCN1CCOCC1)C(=O)COC2 [Compound 112],-1.303,-1.303,–,–
O=C1COCc2cc(-c3cccc(O)c3)ccc2N1Cc1ccc2c(c1)OCO2 [Compound 140],-0.481,-0.481,–,–
Cc1ccccc1-c1cccc2c1COCC(=O)N2C [Compound 8],-0.9498,-0.9498,–,–
CC(C)N1C(=O)COCc2ccc(-c3cccnc3)cc21 [Compound 13],-0.8665,-0.8665,–,–
COc1cccc(CN2C(=O)COCc3ccc(-c4ccccc4)cc32)c1 [Compound 101],-0.6789,-0.6789,–,–
CN1C(=O)COCc2c(-c3ccc(Cl)cc3)cccc21 [Compound 22],-0.8438,-0.8438,–,–
Cc1ccccc1CN1C(=O)COCc2ccc(-c3cccnc3)cc21 [Compound 76],-0.5388,-0.5388,–,–
O=C(O)c1cccc(-c2ccc3c(c2)N(Cc2cc(F)cc(F)c2)C(=O)COC3)c1 [Compound 178],-2.449,-2.449,–,–
COc1ccccc1-c1ccc2c(c1)COCC(=O)N2CCN1CCOCC1 [Compound 135],-1.035,-1.035,–,–
COc1ccccc1-c1ccc2c(c1)COCC(=O)N2CCc1ccccc1 [Compound 119],-0.8266,-0.8266,–,–
O=C1COCc2ccc(Br)cc2N1CC1CCCCC1 [Compound 65],-1.362,-1.362,–,–
Cc1ccccc1CN1C(=O)COCc2ccc(-c3cccc(CO)c3)cc21 [Compound 122],-0.2289,-1.039,0.5816,–
COc1cc(F)ccc1-c1ccc2c(c1)N(Cc1cc(F)cc(F)c1)C(=O)COC2 [Compound 181],–,-0.2325,–,-0.2325

# From PMC5321434, “Dihydrobenz[e][1,4]oxazepin-2(3H)-ones, a new anthelmintic chemotype immobilising whipworm and reducing infectivity in vivo” (PLoS Neglected Tropical Diseases, 2017)
